Experiments:
[1] = test system: corn; assay: Test A preemergence; assay type: in vivo, Zea mays; conditions: Zea mays, pre-emergence, 240 h, 0 to 100 scale where 0 is no effect and 100 is complete control
How it was run: (§1)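 Visual 0–100 rating (100 = complete control) taken about 10 d post-treatment relative to untreated checks. Preemergence: directed soil spray on sown loam/sand pots. Postemergence: seedlings 2–10 cm, 1–2 leaf. Non-phytotoxic solvent formulation with surfactant.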

[2] = test system: yellow nutsedge; assay: Test C preemergence; assay type: in vivo, Cyperus esculentus; conditions: Cyperus, pre-emergence, preemergence, read-out: Nutsedge, Yellow plant response rating
How it was run: (§2)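 Injury was assessed visually against controls 13 to 15 days after application, with 0 meaning no effect and 100 full control; missing entries are shown as a dash. Preemergence sprays hit seeded loam–sand soil, postemergence sprays hit 1- to 4-leaf plants.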

[3] = test system: pigweed; assay: Test C postemergence; assay type: in vivo, Amaranthus retroflexus
How it was run: as §2

[4] = test system: rice; assay: Test B flooded paddy test; assay type: in vivo, Oryza sativa; conditions: Oryza sativa; Flood, 250 g ai/ha; 0 to 100 scale where 0 is no effect and 100 is complete control; read-out: Plant response rating, Rice
How it was run: (§3)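 Scores from 0 (no effect) to 100 (complete control) are visual comparisons with controls, taken 13 to 15 days after compound was applied into floodwater 3 cm deep around 2-leaf plants.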

[5] = test system: pigweed; assay: Test C preemergence; assay type: in vivo, Amaranthus retroflexus; conditions: Amaranthus retroflexus, pre-emergence, preemergence, read-out: Pigweed plant response rating
How it was run: as §2

[6] = test system: kochia; assay: Test C postemergence; assay type: in vivo, Kochia scoparia; conditions: Bassia scoparia, post-emergence
How it was run: as §2

[7] = test system: lambsquarters; assay: Test C postemergence; assay type: in vivo, Chenopodium album
How it was run: as §2

[8] = test system: morningglory; assay: Test A postemergence; assay type: in vivo, Ipomoea spp.; conditions: 0 to 100 scale where 0 is no effect and 100 is complete control
How it was run: as §1

[9] = test system: lambsquarters; assay: Test C preemergence; assay type: in vivo, Chenopodium album; conditions: Chenopodium album, pre-emergence, preemergence, read-out: Lambsquarters plant response rating
How it was run: as §2

[10] = test system: Heteranthera limosa; assay: Test B flooded paddy test; assay type: in vivo; conditions: Heteranthera limosa, Flood, 250 g ai/ha; 0 to 100 scale where 0 is no effect and 100 is complete control; read-out: Plant response rating, Ducksalad
How it was run: as §3

[11] = test system: barnyardgrass; assay: Test C postemergence; assay type: in vivo, Echinochloa crus-galli; conditions: Echinochloa crus-galli, post-emergence
How it was run: as §2

[12] = test system: Italian ryegrass; assay: Test C postemergence; assay type: in vivo, Lolium multiflorum
How it was run: as §2

[13] = test system: soybean; assay: Test C postemergence; assay type: in vivo, Glycine max
How it was run: as §2

[14] = test system: blackgrass; assay: Test C postemergence; assay type: in vivo, Alopecurus myosuroides; conditions: Alopecurus myosuroides, post-emergence
How it was run: as §2

[15] = test system: wheat, winter; assay: Test C preemergence; assay type: in vivo, Triticum aestivum; conditions: Triticum aestivum, pre-emergence, preemergence, read-out: Wheat plant response rating
How it was run: as §2

[16] = 16 g ai/ha, scale 0 to 100 (0 no effect, 100 complete control)
[17] = 62 g ai/ha, scale 0 (no effect) to 100 (complete control)
[18] = 125 g ai/ha, scale 0 (no effect) to 100 (complete control)
[19] = 31 g ai/ha, postemergence, visual rating, scale 0 to 100 (0 no effect, 100 complete control), 13 to 15 days

## FC(F)(F)c1cn(-c2ccccc2Oc2ncc(Cl)cn2)nn1 [Compound 166, 5-chloro-2-[2-[4-(trifluoromethyl)-1H-1,2,3-triazol-1-yl]phenoxy]pyrimidine]
[1]; 125 g ai/ha
  Corn plant response rating (crop injury, 0 = no effect, 100 = complete kill) at 125 g/ha: 30%
[1]; 500 g ai/ha, read-out: Corn plant response rating
  plant injury at 500 g/ha: 30%
[2]; [16]
  pest or weed control at 16 g/ha: 0%
[2]; [17]
  pest or weed control at 62 g/ha: 35%
[2]; [18]
  pest or weed control at 125 g/ha: 80%
[3]; [19]
  Pigweed plant response rating: 85
[3]; Amaranthus retroflexus, post-emergence, 16 g ai/ha, postemergence, 0 is no effect, 100 is complete control, read-out: Plant response rating (0 to 100), Pigweed
  pest or weed control at 16 g/ha: 80%
[3]; Amaranthus retroflexus, post-emergence, 125 g ai/ha, postemergence, visual rating, scale 0 to 100 (0 no effect, 100 complete control), read-out: Plant response rating, Pigweed
  pest or weed control at 125 g/ha: 98%
[3]; Amaranthus retroflexus, post-emergence, Postemergence, 62 g ai/ha, scale 0 to 100 (0 no effect, 100 complete control), read-out: Plant response rating, Pigweed
  pest or weed control at 62 g/ha: 90%
[4]
  plant injury at 250 g/ha: 75%
[5]; [16]
  pest or weed control at 16 g/ha: 100%
[5]; [17]
  pest or weed control at 62 g/ha: 100%
[5]; [18]
  pest or weed control at 125 g/ha: 100%
[6]; 16 g ai/ha, postemergence, 0 is no effect, 100 is complete control, read-out: Plant response rating (0 to 100), Kochia
  pest or weed control at 16 g/ha: 90%
[6]; 31 g ai/ha, postemergence, visual rating, scale 0 to 100 (0 no effect, 100 complete control), 13 to 15 days, read-out: Kochia plant response rating
  pest or weed control at 31 g/ha: 90%
[6]; 125 g ai/ha, postemergence, visual rating, scale 0 to 100 (0 no effect, 100 complete control), read-out: Plant response rating, Kochia
  pest or weed control at 125 g/ha: 100%
[6]; Postemergence, 62 g ai/ha, scale 0 to 100 (0 no effect, 100 complete control), read-out: Plant response rating, Kochia
  pest or weed control at 62 g/ha: 90%
[7]; [19]
  Lambsquarters plant response rating: 80
[7]; Chenopodium album, post-emergence, 16 g ai/ha, postemergence, 0 is no effect, 100 is complete control, read-out: Plant response rating (0 to 100), Lambsquarters
  pest or weed control at 16 g/ha: 40%
[7]; Chenopodium album, post-emergence, 125 g ai/ha, postemergence, visual rating, scale 0 to 100 (0 no effect, 100 complete control), read-out: Plant response rating, Lambsquarters
  pest or weed control at 125 g/ha: 98%
[7]; Chenopodium album, post-emergence, Postemergence, 62 g ai/ha, scale 0 to 100 (0 no effect, 100 complete control), read-out: Plant response rating, Lambsquarters
  pest or weed control at 62 g/ha: 95%
[8]; 125 g ai/ha
  Morningglory plant response rating: 100
[8]; Ipomoea, post-emergence, 240 h, 500 g ai/ha, read-out: Plant response rating, Morningglory
  pest or weed control at 500 g/ha: 100%
[9]; [16]
  pest or weed control at 16 g/ha: 90%
[9]; [17]
  pest or weed control at 62 g/ha: 98%
[9]; [18]
  pest or weed control at 125 g/ha: 98%
[10]
  pest or weed control at 250 g/ha: 95%
[11]; 16 g ai/ha, postemergence, 0 is no effect, 100 is complete control, read-out: Plant response rating (0 to 100), Barnyardgrass
  pest or weed control at 16 g/ha: 5%
[11]; 31 g ai/ha, postemergence, visual rating, scale 0 to 100 (0 no effect, 100 complete control), 13 to 15 days, read-out: Barnyardgrass plant response rating
  pest or weed control at 31 g/ha: 10%
[11]; 125 g ai/ha, postemergence, visual rating, scale 0 to 100 (0 no effect, 100 complete control), read-out: Plant response rating, Barnyardgrass
  pest or weed control at 125 g/ha: 15%
[11]; Postemergence, 62 g ai/ha, scale 0 to 100 (0 no effect, 100 complete control), read-out: Plant response rating, Barnyardgrass
  pest or weed control at 62 g/ha: 10%
[12]; [19]
  Ryegrass, Italian plant response rating: 5
[12]; Lolium multiflorum, post-emergence, 16 g ai/ha, postemergence, 0 is no effect, 100 is complete control, read-out: Plant response rating (0 to 100), Ryegrass, Italian
  pest or weed control at 16 g/ha: 0%
[12]; Lolium multiflorum, post-emergence, 125 g ai/ha, postemergence, visual rating, scale 0 to 100 (0 no effect, 100 complete control), read-out: Plant response rating, Ryegrass, Italian
  pest or weed control at 125 g/ha: 30%
[12]; Lolium multiflorum, post-emergence, Postemergence, 62 g ai/ha, scale 0 to 100 (0 no effect, 100 complete control), read-out: Plant response rating, Ryegrass, Italian
  pest or weed control at 62 g/ha: 15%
[13]; [19]
  Soybean plant response rating: 95
[13]; Glycine max, post-emergence, 16 g ai/ha, postemergence, 0 is no effect, 100 is complete control
  Soybean plant response rating (crop injury, 0-100 scale) at 16 g/ha: 40%
[13]; Glycine max, post-emergence, 125 g ai/ha, postemergence, visual rating, scale 0 to 100 (0 no effect, 100 complete control), read-out: Plant response rating, Soybean
  Soybean plant response rating (crop injury, 0-100 scale) at 125 g/ha: 95%
[13]; Glycine max, post-emergence, Postemergence, 62 g ai/ha, scale 0 to 100 (0 no effect, 100 complete control)
  Soybean plant response rating (crop injury, 0-100 scale) at 62 g/ha: 90%
[14]; 16 g ai/ha, postemergence, 0 is no effect, 100 is complete control, read-out: Plant response rating (0 to 100), Blackgrass
  pest or weed control at 16 g/ha: 5%
[14]; 31 g ai/ha, postemergence, visual rating, scale 0 to 100 (0 no effect, 100 complete control), 13 to 15 days, read-out: Blackgrass plant response rating
  pest or weed control at 31 g/ha: 10%
[14]; 125 g ai/ha, postemergence, visual rating, scale 0 to 100 (0 no effect, 100 complete control), read-out: Plant response rating, Blackgrass
  pest or weed control at 125 g/ha: 60%
[14]; Postemergence, 62 g ai/ha, scale 0 to 100 (0 no effect, 100 complete control), read-out: Plant response rating, Blackgrass
  pest or weed control at 62 g/ha: 45%
[15]; [16]
  plant injury at 16 g/ha: 0%
[15]; [17]
  plant injury at 62 g/ha: 60%
[15]; [18]
  plant injury at 125 g/ha: 90%

— patent US9695155B2, “Herbicidal substituted pyrimidinyloxy benzene compounds” (E. I. DU PONT DE NEMOURS AND COMPANY, priority 2013, dated 2017)
